Earlier results, collected in publication PMC5107951 (Scientific Reports, 2016).

Tested on: GABA-A receptor
Conditions: cited from earlier work

## α-conotoxin ImI
  binding to GABA-A receptor (in words): low affinity

## α-cobratoxin
  binding to GABA-A receptor (in words): also binds
